Measurements as given in publication PMC11992225, “Antibacterial compounds against non-growing and intracellular bacteria” (npj Antimicrobials and Resistance, 2025).
Converted amounts (≈) assume the structure as drawn. “And” between values parts separate entries of the source, which are not always exact repeats. Equal entries are not always repeated.

Columns and labels:
[1] = test system: non-growing UPEC CFT073; test: Dose-dependent killing analysis (CFU spot-plating) of stationary-phase UPEC; format: cell-based, Escherichia coli
In short: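 Non-growing (stationary-phase) UPEC CFT073 treated with compounds in 96-well format at 200 μl, then 10-fold serially diluted in PBS and 10 μl spots plated on LB agar. Plates incubated overnight at 37 °C; colonies counted at lowest resolvable dilution to give CFU. Three biological replicates.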

[2] = test system: non-growing P. aeruginosa DSM1117; test: Dose-dependent killing analysis (CFU spot-plating) of stationary-phase P. aeruginosa; format: cell-based, Pseudomonas aeruginosa; conditions: for Killing: average Δlog10(CFU/ml) / log10(CFU/ml) after treatment, single replicates: P. aeruginosa; for Killing: average Δlog10(CFU/ml): vs 8.887 before treatment
In short: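 Stationary-phase P. aeruginosa DSM1117 treated for 24 h in 1:4 CA-MHB, pH 7.4, across compound doses. Survivors counted after 10-fold PBS dilution, spot-plating on LB agar and overnight growth at 37 °C; three biological replicates.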

[3] = test system: S. aureus DSM2569; test: MIC, standard microdilution assay, growing S. aureus; format: cell-based, Staphylococcus aureus; conditions: Staphylococcus aureus, DSM2569; S. aureus; CA-MHB pH 7.4; read-out: MIC (μM) CA-MHB
In short: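 MICs come from microdilution in CA-MHB/40 mM HEPES pH 7.4 for the UPEC, Pseudomonas and Staphylococcus strains, and in TSB for Shigella. UPEC also tested in LPM/30 mM MES pH 5.5.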

[4] = test system: non-growing S. aureus DSM2569; test: Dose-dependent killing analysis (CFU spot-plating) of stationary-phase S. aureus; format: cell-based, Staphylococcus aureus; conditions: S. aureus; for Killing: average Δlog10(CFU/ml): vs 9,097 before treatment
In short: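 Stationary-phase S. aureus DSM2569 was grown and treated for 24 h in 1:4 CA-MHB at pH 7.4. Treated samples were serially diluted 10-fold in PBS and spot-plated on LB agar, which was incubated overnight at 37 °C. Survivors were counted as CFU over three biological replicates.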

[5] = test system: non-growing UPEC CFT073; test: Dilution-regrowth assay (screen, hit validation, dose-response) on stationary-phase UPEC; format: cell-based, Escherichia coli; conditions: OD600 at 6h or 8h
In short: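 Regrowth (OD600 after 6 h, 37 °C) of diluted non-growing CFT073, following 24 h compound treatment of 24 h stationary cultures, defines activity relative to untreated control. Screen at 20 µM, validation at 20, 10, 5 µM (duplicates), dose–response in three biological replicates fitted by five-parameter logistic.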

[6] = E. coli in 1:4 CA-MHB (pH 7.4), concentration 0.25
[7] = E. coli in 1:4 CA-MHB (pH 7.4), concentration 0.5
[8] = E. coli in 1:4 CA-MHB (pH 7.4), concentration 1
[9] = E. coli in 1:4 CA-MHB (pH 7.4), concentration 2.5
[10] = E. coli in 1:4 CA-MHB (pH 7.4), concentration 5
[11] = E. coli in 1:4 CA-MHB (pH 7.4), concentration 10
[12] = E. coli in LPM (pH 5.5), concentration 0.25
[13] = E. coli in LPM (pH 5.5), concentration 0.5
[14] = E. coli in LPM (pH 5.5), concentration 1
[15] = E. coli in LPM (pH 5.5), concentration 2.5
[16] = E. coli in LPM (pH 5.5), concentration 5
[17] = E. coli in LPM (pH 5.5), concentration 10

Structure (SMILES): CO[C@H]1/C=C/O[C@@]2(C)Oc3c(C)c(O)c4c(c3C2=O)C2=NC3(CCN(CC(C)C)CC3)NC2=C(NC(=O)/C(C)=C\C=C\[C@H](C)[C@H](O)[C@@H](C)[C@@H](O)[C@@H](C)[C@H](OC(C)=O)[C@@H]1C)C4=O [Rifabutin]
- bactericidal activity against non-growing UPEC (CFU counting) ([1]; 24 h treatment of stationary phase culture): did not kill
- log10(CFU/ml) after treatment, single replicates [1, 6]: 9.000 log10(CFU/ml) (2×) and 8.699 log10(CFU/ml)
- Killing: average Δlog10(CFU/ml) ([1]; E. coli in 1:4 CA-MHB (pH 7.4), concentration 0.25, vs 8.977 before treatment): 0.078 log10(CFU/ml)
- log10(CFU/ml) after treatment, single replicates [1, 7]: 9.230 log10(CFU/ml) and 8.532 log10(CFU/ml) and 8.699 log10(CFU/ml)
- Killing: average Δlog10(CFU/ml) ([1]; E. coli in 1:4 CA-MHB (pH 7.4), concentration 0.5, vs 8.977 before treatment): 0.157 log10(CFU/ml)
- log10(CFU/ml) after treatment, single replicates [1, 8]: 9.322 log10(CFU/ml) and 8.477 log10(CFU/ml) and 8.301 log10(CFU/ml)
- Killing: average Δlog10(CFU/ml) ([1]; E. coli in 1:4 CA-MHB (pH 7.4), concentration 1, vs 8.977 before treatment): 0.277 log10(CFU/ml)
- log10(CFU/ml) after treatment, single replicates [1, 9]: 8.699 log10(CFU/ml) and 8.505 log10(CFU/ml) and 8.000 log10(CFU/ml)
- Killing: average Δlog10(CFU/ml) ([1]; E. coli in 1:4 CA-MHB (pH 7.4), concentration 2.5, vs 8.977 before treatment): 0.576 log10(CFU/ml)
- log10(CFU/ml) after treatment, single replicates [1, 10]: 9.041 log10(CFU/ml) and 8.447 log10(CFU/ml) and 9.000 log10(CFU/ml)
- Killing: average Δlog10(CFU/ml) ([1]; E. coli in 1:4 CA-MHB (pH 7.4), concentration 5, vs 8.977 before treatment): 0.148 log10(CFU/ml)
- log10(CFU/ml) after treatment, single replicates [1, 11]: 8.903 log10(CFU/ml) and 8.176 log10(CFU/ml) and 8.415 log10(CFU/ml)
- Killing: average Δlog10(CFU/ml) ([1]; E. coli in 1:4 CA-MHB (pH 7.4), concentration 10, vs 8.977 before treatment): 0.479 log10(CFU/ml)
- log10(CFU/ml) after treatment, single replicates [1, 12]: 6.954 log10(CFU/ml) and 6.415 log10(CFU/ml) and 7.954 log10(CFU/ml)
- Killing: average Δlog10(CFU/ml) ([1]; E. coli in LPM (pH 5.5), concentration 0.25, vs 7.350 before treatment): 0.243 log10(CFU/ml)
- log10(CFU/ml) after treatment, single replicates [1, 13]: 7.000 log10(CFU/ml) and 6.778 log10(CFU/ml) and 7.663 log10(CFU/ml)
- Killing: average Δlog10(CFU/ml) ([1]; E. coli in LPM (pH 5.5), concentration 0.5, vs 7.350 before treatment): 0.203 log10(CFU/ml)
- log10(CFU/ml) after treatment, single replicates [1, 14]: 6.954 log10(CFU/ml) and 6.398 log10(CFU/ml) and 7.681 log10(CFU/ml)
- Killing: average Δlog10(CFU/ml) ([1]; E. coli in LPM (pH 5.5), concentration 1, vs 7.350 before treatment): 0.339 log10(CFU/ml)
- log10(CFU/ml) after treatment, single replicates [1, 15]: 7.322 log10(CFU/ml) and 6.845 log10(CFU/ml) and 7.623 log10(CFU/ml)
- Killing: average Δlog10(CFU/ml) ([1]; E. coli in LPM (pH 5.5), concentration 2.5, vs 7.350 before treatment): 0.087 log10(CFU/ml)
- log10(CFU/ml) after treatment, single replicates [1, 16]: 6.477 log10(CFU/ml) and 6.845 log10(CFU/ml) and 7.462 log10(CFU/ml)
- Killing: average Δlog10(CFU/ml) ([1]; E. coli in LPM (pH 5.5), concentration 5, vs 7.350 before treatment): 0.422 log10(CFU/ml)
- log10(CFU/ml) after treatment, single replicates [1, 17]: 7.114 log10(CFU/ml) and 6.954 log10(CFU/ml) and 7.633 log10(CFU/ml)
- Killing: average Δlog10(CFU/ml) ([1]; E. coli in LPM (pH 5.5), concentration 10, vs 7.350 before treatment): 0.116 log10(CFU/ml)
- Killing: average Δlog10(CFU/ml) ([2]; concentration 0.1): 0.484 log10(CFU/ml)
- log10(CFU/ml) after treatment, single replicates ([2]; concentration 0.25): 8.477 log10(CFU/ml) and 8.954 log10(CFU/ml) and 7.778 log10(CFU/ml)
- Killing: average Δlog10(CFU/ml) ([2]; concentration 0.5): 0.158 log10(CFU/ml)
- Killing: average Δlog10(CFU/ml) ([2]; concentration 2.5): 4.469 log10(CFU/ml)
- log10(CFU/ml) after treatment, single replicates ([2]; printed on the line of concentration 1): 8.301 log10(CFU/ml) and 9.041 log10(CFU/ml) and 8.845 log10(CFU/ml)
- log10(CFU/ml) after treatment, single replicates ([2]; printed on the line of concentration 5): 4.477 log10(CFU/ml) and 4.778 log10(CFU/ml) and =<4 log10(CFU/ml)
- reduction of bacterial counts, non-growing P. aeruginosa ([2]; at 2.5 µM, 1:4 CA-MHB pH 7.4, 24 h treatment): more than four
- killing of non-growing P. aeruginosa ([2]; at 2.5 µM, 24 h treatment): > 4 log10
- MIC [3]: 0.025 µM (≈ 0.0212 µg/mL)
- log10(CFU/ml) after treatment, single replicates ([4]; concentration 0.1): 8.833 log10(CFU/ml) and 8.875 log10(CFU/ml) and 8.763 log10(CFU/ml)
- Killing: average Δlog10(CFU/ml) ([4]; concentration 0.1): 0.273 log10(CFU/ml)
- log10(CFU/ml) after treatment, single replicates ([4]; concentration 0.5): 8.869 log10(CFU/ml) and 8.996 log10(CFU/ml) and 8.079 log10(CFU/ml)
- Killing: average Δlog10(CFU/ml) ([4]; concentration 0.5): 0.449 log10(CFU/ml)
- log10(CFU/ml) after treatment, single replicates ([4]; concentration 2.5): 8.763 log10(CFU/ml) and 8.785 log10(CFU/ml) and 8.643 log10(CFU/ml)
- Killing: average Δlog10(CFU/ml) ([4]; concentration 2.5): 0.366 log10(CFU/ml)
- log10(CFU/ml) after treatment, single replicates ([4]; concentration 10): 8.778 log10(CFU/ml) and 8.806 log10(CFU/ml) and 8.756 log10(CFU/ml)
- Killing: average Δlog10(CFU/ml) ([4]; concentration 10): 0.317 log10(CFU/ml)
- Regrowth: OD600 after dilution into drug-free medium (mean) [5, 6]: 0.656
- Regrowth: OD600 after dilution into drug-free medium (mean) [5, 7]: 0.633
- Regrowth: OD600 after dilution into drug-free medium (mean) [5, 8]: 0.623
- Regrowth: OD600 after dilution into drug-free medium (mean) [5, 9]: 0.617
- Regrowth: OD600 after dilution into drug-free medium (mean) [5, 10]: 0.605
- Regrowth: OD600 after dilution into drug-free medium (mean) [5, 11]: 0.612
- Regrowth: OD600 after dilution into drug-free medium (mean) [5, 12]: 0.569
- Regrowth: OD600 after dilution into drug-free medium (mean) [5, 13]: 0.563
- Regrowth: OD600 after dilution into drug-free medium (mean) [5, 14]: 0.555
- Regrowth: OD600 after dilution into drug-free medium (mean) [5, 15]: 0.521
- Regrowth: OD600 after dilution into drug-free medium (mean) [5, 16]: 0.497
- Regrowth: OD600 after dilution into drug-free medium (mean) [5, 17]: 0.485
